Data: patent US20240270821A1, “GIP/GLP1/GCG TRI-RECEPTOR AGONISTS AND USES THEREOF” (priority 2023, published 2024)
Read-outs that look alike come from different tables or passages of the source. Starred links: 1 amine or outer side, 2 acyl side, 3 side chain; linkers in the order of their positions; H or OH if unused. Non-standard residues stand in square brackets, D forms with d. Groups on a side chain read outwards from the residue. *: point of attachment. C20 diacid = O=C(O)CCCCCCCCCCCCCCCCCCC(=O)*; C18 diacid = O=C(O)CCCCCCCCCCCCCCCCC(=O)*; αMePhe(2-F) = C[C@](N)(Cc1ccccc1F)C(=O)O; γGlu = O=C(O)[C@H](CCC(=O)[*:2])N[*:1]; αMe4Pal = C[C@](N)(Cc1ccncc1)C(=O)O; αMeY = C[C@](N)(Cc1ccc(O)cc1)C(=O)O; Hyp = O=C(O)[C@@H]1C[C@@H](O)CN1; 4Pal = N[C@@H](Cc1ccncc1)C(=O)O; αMeL = CC(C)C[C@](C)(N)C(=O)O; αMeS = C[C@](N)(CO)C(=O)O; Orn = NCCC[C@H](N)C(=O)O; AEEA = NCCOCCOCC(=O)O; Aib = CC(C)(N)C(=O)O

Assays:
Format in all cases: cell-based
hGcgR = hGcgR (Homo sapiens, UniProt P47871); test: Functional cAMP activation in the presence of 0.1% casein (no HSA);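 further: intracellular cAMP rise after 30 min at 37 °C, read by HTRF against a cAMP standard curve, scaled from buffer only (0%) to maximal control ligand response (100%)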
hGIPR [1] = target: T1, hGIPR (Homo sapiens, UniProt P48546); test: Functional cAMP activity in the presence of 1% HSA; conditions: read-out: cAMP Rel EC50, hGIPR
T1 sequence (P48546 22-466): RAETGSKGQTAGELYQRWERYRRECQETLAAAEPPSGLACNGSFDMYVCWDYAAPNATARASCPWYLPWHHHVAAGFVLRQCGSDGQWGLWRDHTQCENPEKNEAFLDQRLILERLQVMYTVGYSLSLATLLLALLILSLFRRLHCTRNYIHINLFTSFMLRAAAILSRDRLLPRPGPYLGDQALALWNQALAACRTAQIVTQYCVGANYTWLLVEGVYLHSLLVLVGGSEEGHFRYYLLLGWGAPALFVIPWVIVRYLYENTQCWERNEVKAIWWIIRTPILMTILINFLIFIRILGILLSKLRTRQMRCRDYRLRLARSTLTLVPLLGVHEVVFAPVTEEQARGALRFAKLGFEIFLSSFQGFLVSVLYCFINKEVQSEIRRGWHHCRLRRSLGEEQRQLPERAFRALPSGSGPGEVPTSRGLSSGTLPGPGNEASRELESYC

hGLP-1R [2] = target: T2, hGLP-1R (Homo sapiens, UniProt P43220); test: Functional cAMP activation in the presence of 0.1% casein (no HSA);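 further: intracellular cAMP rise after 30 min at 37 °C read by HTRF, normalized between buffer only (0%) and maximal control ligand (100%), four-parameter variable-slope fit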
hGLP-1R [3] = target: T2, hGLP-1R; test: Functional cAMP activity in the presence of 1% HSA; conditions: read-out: cAMP Rel EC50, hGLP-1R
hGIPR [4] = target: T1, hGIPR; test: Functional cAMP activation in the presence of 0.1% casein (no HSA);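 further: intracellular cAMP rise after 30 min at 37 °C read by HTRF against a standard curve, scaled between buffer alone (0%) and top control ligand concentration (100%), four-parameter fit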
human GcgR = human GcgR (Homo sapiens, UniProt P47871); test: Functional cAMP activity in the presence of 1% HSA
[5] = read-out: Relative cAMP EC50, hGcgR
[6] = read-out: Relative cAMP EC50, hGLP-1R
[7] = read-out: Relative cAMP EC50, hGIPR
[8] = in the presence of 0.1% casein (no HSA), geometric mean of relative EC50, read-out: Relative cAMP EC50, hGcgR
[9] = HEK-293 clonal cell line, 1% HSA, geometric mean of relative EC50
[10] = in the presence of 0.1% casein (no HSA), geometric mean of relative EC50, read-out: Relative cAMP EC50, hGLP-1R
[11] = in the presence of 0.1% casein (no HSA), geometric mean of relative EC50, read-out: Relative cAMP EC50, hGIPR
[12] = HEK-293 clonal cell line, 1% HSA, geometric mean of relative EC50, read-out: cAMP Rel EC50, hGcgR
[13] = in the presence of 0.1% casein (no HSA), geometric mean, read-out: Relative cAMP EC50, hGcgR
[14] = in the presence of 0.1% casein (no HSA), geometric mean, read-out: Relative cAMP EC50, hGLP-1R
[15] = in the presence of 0.1% casein (no HSA), geometric mean, read-out: Relative cAMP EC50, hGIPR

Sequence of human GcgR (P47871 26-477): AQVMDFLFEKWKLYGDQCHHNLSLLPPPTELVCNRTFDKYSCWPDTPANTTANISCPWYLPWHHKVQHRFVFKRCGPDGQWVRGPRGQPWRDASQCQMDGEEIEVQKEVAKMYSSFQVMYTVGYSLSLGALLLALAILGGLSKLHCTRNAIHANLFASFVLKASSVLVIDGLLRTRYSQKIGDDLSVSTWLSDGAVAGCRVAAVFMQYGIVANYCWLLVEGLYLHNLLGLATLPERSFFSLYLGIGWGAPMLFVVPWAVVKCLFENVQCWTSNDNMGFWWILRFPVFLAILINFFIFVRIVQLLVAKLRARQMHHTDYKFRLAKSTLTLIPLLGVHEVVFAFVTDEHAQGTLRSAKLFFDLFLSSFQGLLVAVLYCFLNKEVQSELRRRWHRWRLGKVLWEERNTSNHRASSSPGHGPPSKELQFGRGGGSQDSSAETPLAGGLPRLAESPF
Sequence of hGcgR (P47871 26-477): as above
T2 sequence (P43220 24-463): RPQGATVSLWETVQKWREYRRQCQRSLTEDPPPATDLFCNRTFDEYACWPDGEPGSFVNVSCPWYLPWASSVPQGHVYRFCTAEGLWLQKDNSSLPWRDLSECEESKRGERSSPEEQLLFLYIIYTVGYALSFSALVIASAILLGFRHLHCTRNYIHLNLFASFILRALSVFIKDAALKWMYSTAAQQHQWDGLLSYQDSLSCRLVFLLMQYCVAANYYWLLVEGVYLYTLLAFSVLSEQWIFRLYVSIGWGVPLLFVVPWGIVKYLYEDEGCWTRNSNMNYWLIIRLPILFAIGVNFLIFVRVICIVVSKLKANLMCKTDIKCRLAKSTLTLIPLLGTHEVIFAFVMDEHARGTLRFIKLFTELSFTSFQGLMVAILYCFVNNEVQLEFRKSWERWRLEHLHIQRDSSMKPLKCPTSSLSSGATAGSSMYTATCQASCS

| Substance | EC50 (hGIPR [1]) | EC50 (hGLP-1R [3]) | EC50 (human GcgR; read-out: cAMP Rel EC50, hGcgR) | EC50 (hGcgR; [13]) | EC50 (hGLP-1R [2]; [14]) | EC50 (hGIPR [4]; [15]) | further results |
| --- | --- | --- | --- | --- | --- | --- | --- |
| H-Y[Aib]QGT[αMePhe(2-F)]TSD[4Pal][αMeS]I[αMeL]LD[Orn]K([γGlu-γGlu-C18 diacid])AQ[αMe4Pal]EFI[dE][αMeY]LIEGGPSSGAPPPEGTGE-NH2 [Example 764] | 0.649 nM | 38.8 nM | – | – | – | – | EC50 (hGcgR): 1.63 nM; EC50 (hGLP-1R [2]): 0.289 nM; EC50 (hGIPR [4]): 0.00626 nM; EC50 (human GcgR): 146 nM |
| H-Y[Aib]QGT[αMePhe(2-F)]TSD[4Pal][αMeS]I[αMeL]LD[Orn]K([γGlu-γGlu-C18 diacid])AQ[Aib][Orn]FI[dE][αMeY]LAEGGPSSGEPPPSGAEE-NH2 [Example 591] | 3 nM | 44.5 nM | 234 nM | – | – | – | EC50 (hGcgR; [5]): 4.67 nM; EC50 (hGLP-1R [2]; [6]): 0.773 nM; EC50 (hGIPR [4]; [7]): 0.0579 nM |
| H-Y[Aib]QGT[αMePhe(2-F)]TSDYSI[αMeL]LDKK([AEEA-γGlu-C18 diacid])AQ[Aib]AFIEYLLETGPSSGAPPPSEG-NH2 [Example 417] | – | – | – | – | – | – | EC50 (hGcgR; [8]): 2.83 nM; EC50 (hGIPR [1]; [9]): 4.46 nM; EC50 (hGLP-1R [2]; [10]): 0.328 nM; EC50 (hGLP-1R [3]; [9]): 67 nM; EC50 (hGIPR [4]; [11]): 0.0144 nM; EC50 (human GcgR; [12]): 386 nM |
| H-Y[Aib]QGTFTSDFSK[αMeL]LDKK([AEEA-γGlu-C20 diacid])AQ[Aib]AFIEYLLEGGPSSGEPPPEEG-NH2 [Example 35] | 194 nM | 1130 nM | 1390 nM | 4.32 nM | 3.05 nM | 0.55 nM | – |
| H-Y[Aib]QGTFTSD[4Pal]SQ[αMeL]LDKK([γGlu-γGlu-C18 diacid])AQ[αMe4Pal]AFIE[αMe4Pal]LIE[Aib]GPSSGEPPPSGE-NH2 [Example 1123] | 3.89 nM | 191 nM | 441 nM | 5.53 nM | 4.47 nM | 0.101 nM | – |
| H-Y[Aib]QGTFTSDFSK[αMeL]LDKK([AEEA-γGlu-C18 diacid])AQ[Aib]AFIE[αMe4Pal]LIE[Aib]GPSSGAPPPSGS-NH2 [Example 912] | 6.15 nM | 59.6 nM | 955 nM | 3.76 nM | 0.414 nM | 0.0387 nM | – |
| H-Y[Aib]QGTFTSD[4Pal]SQ[αMeL]LDKK([γGlu-γGlu-C18 diacid])AQ[αMe4Pal]AFIEYLIE[Aib]GPSSGAPPPEGE-NH2 [Example 884] | 23.5 nM | 298 nM | 613 nM | 3.82 nM | 4.17 nM | 0.155 nM | – |
| H-Y[Aib]QGTFTSD[4Pal]SQ[αMeL]LD[Orn]K([γGlu-γGlu-C18 diacid])AQ[αMe4Pal]AFIE[αMeY]LIE[Aib]GPSSGEPPPSGSEE-NH2 [Example 1093] | 26.8 nM | 141 nM | 958 nM | 7.72 nM | 0.954 nM | 0.152 nM | – |
| H-Y[Aib]QGT[αMePhe(2-F)]TSD[4Pal][αMeS]I[αMeL]LD[Orn]QAQ[αMe4Pal]EFI[dE][αMeY]LIEGGPSSGAPPPSGS-NH2 [Example 1232] | 0.00687 nM | 0.694 nM | 8.53 nM | – | – | – | EC50 (hGcgR; 0.1% casein, no HSA, geometric mean, read-out: Relative cAMP EC50, hGcgR): 6.69 nM; EC50 (hGLP-1R [2]; 0.1% casein, no HSA, geometric mean, read-out: Relative cAMP EC50, hGLP-1R): 0.723 nM; EC50 (hGIPR [4]; 0.1% casein, no HSA, geometric mean, read-out: Relative cAMP EC50, hGIPR): 0.00893 nM |
| H-Y[Aib]QGT[αMePhe(2-F)]TSD[4Pal]SI[αMeL]LD[Orn]K([γGlu-γGlu-C18 diacid])AQ[αMe4Pal]EFI[dE][αMeY]LIEGGPSSGAPPPSGE-NH2 [Example 616] | 0.467 nM | 28.9 nM | 734 nM | – | – | – | EC50 (hGcgR; [5]): 6.58 nM; EC50 (hGLP-1R [2]; [6]): 0.29 nM; EC50 (hGIPR [4]; [7]): 0.00727 nM |
| H-Y[Aib]QGTFTSDYSI[αMeL]LD[Orn]QAAK([AEEA-AEEA-γGlu-C20 diacid])QFVEWLLA[Aib]GPSSGEPPPSEG-NH2 [Example 328] | 91.1 nM | 462 nM | 2040 nM | 10.3 nM | 1.3 nM | 0.544 nM | – |
| H-Y[Aib]QGT[αMePhe(2-F)]TSD[4Pal]SI[αMeL]LD[Orn]K([AEEA-γGlu-C18 diacid])AQ[αMe4Pal]EFI[dE][αMeY]LAEGGPSSGAPPPSGS-NH2 [Example 642] | 0.791 nM | 67.1 nM | 519 nM | – | – | – | EC50 (hGcgR; [5]): 3.49 nM; EC50 (hGLP-1R [2]; [6]): 0.474 nM; EC50 (hGIPR [4]; [7]): 0.00796 nM |
| H-Y[Aib]QGT[αMePhe(2-F)]TSD[4Pal][αMeS]I[αMeL]LD[Orn]K([AEEA-γGlu-C18 diacid])AQ[αMe4Pal]EFI[dE][αMeY]LIEGGPSSGAPPPSGSEE-NH2 [Example 713] | 0.879 nM | 37.7 nM | 180 nM | – | – | – | EC50 (hGcgR; [5]): 1.71 nM; EC50 (hGLP-1R [2]; [6]): 0.331 nM; EC50 (hGIPR [4]; [7]): 0.00928 nM |
| H-Y[Aib]QGTFTSDFS[Orn][αMeL]LDKK([AEEA-γGlu-C18 diacid])AQ[Aib]AFIE[αMeY]LIEGGPSSGAPPPSGS-NH2 [Example 839] | 21.9 nM | 60.6 nM | 1110 nM | 5.05 nM | 0.469 nM | 0.221 nM | – |
| H-Y[Aib]QGT[αMePhe(2-F)]TSD[4Pal]SI[αMeL]LDKK([γGlu-γGlu-C18 diacid])AQ[Aib][Orn]FIEYLSEGGPSSGEPPPSGSEE-NH2 [Example 637] | – | – | – | – | – | – | EC50 (hGcgR; [8]): 11.7 nM; EC50 (hGIPR [1]; [9]): 7.23 nM; EC50 (hGLP-1R [2]; [10]): 1.08 nM; EC50 (hGLP-1R [3]; [9]): 76.2 nM; EC50 (hGIPR [4]; [11]): 0.108 nM; EC50 (human GcgR; [12]): 968 nM |
| H-Y[Aib]QGT[αMePhe(2-F)]TSD[4Pal][αMeS]I[αMeL]LD[Orn]K([AEEA-γGlu-C18 diacid])AA[Aib]EFI[dE][αMeY]LIEGGPSSGAPPPSGEE-NH2 [Example 703] | – | – | – | – | – | – | EC50 (hGcgR; [8]): 1.56 nM; EC50 (hGIPR [1]; [9]): 0.961 nM; EC50 (hGLP-1R [2]; [10]): 0.233 nM; EC50 (hGLP-1R [3]; [9]): 27.1 nM; EC50 (hGIPR [4]; [11]): 0.0101 nM; EC50 (human GcgR; [12]): 201 nM |
| H-Y[Aib]QGTFTSD[4Pal]SQ[αMeL]LDKK([Glu-Glu-γGlu-C18 diacid])AQ[αMe4Pal]AFIEYLIAGGPSSGAPPPSGEEE-NH2 [Example 1090] | 27.3 nM | 619 nM | 2010 nM | 15.6 nM | 5.44 nM | 0.272 nM | – |
| H-Y[Aib]QGTFTSDFS[Orn][αMeL]LDKK([AEEA-γGlu-C18 diacid])AQ[Aib]AFIEYLLEGG[Hyp]SSGAPPPGGS-NH2 [Example 234] | 31.1 nM | 604 nM | 702 nM | 7.87 nM | 4.72 nM | 0.322 nM | – |
| H-Y[Aib]QGTFTSD[4Pal]S[Orn][αMeL]LDKK([AEEA-γGlu-γGlu-C18 diacid])AQ[αMe4Pal]AFIE[αMe4Pal]LIE[Aib]GPSSGEPPPSGS-NH2 [Example 987] | 11.7 nM | 515 nM | 267 nM | 3.62 nM | 6.33 nM | 0.194 nM | – |
